Assay results reported in PubChem BioAssay AID1845204 (Molecular Pharmacology Branch, DTP, NCI, 2023).
Active and inactive are the calls of the source. Rule for the calls: active = viability on the fitted dose curve at most 10% of control; inactive = the rest.

Tested on: HSSY-II tumor spheroid viability
Experiment: Anticancer human tumor HSSY-II cell line growth inhibition;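 for IC50: spheroids exposed to compounds for seven days before reading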;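 for viability, T/C: spheroids exposed to compounds for seven days before reading; percent of DMSO vehicle control viability so 100% = untreated level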
Conditions: spheroids with HUVEC and MSC; for IC50: curve of first compound; for viability, T/C: stronger effect = lower value
Procedure, shortened: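 Complex tumor spheroids combined malignant cells with endothelial cells and mesenchymal stem cells. DNA-damaging drugs and DNA repair inhibitors were tested alone and in combination, at half-log dilutions down from clinical Cmax (top 10 microM if Cmax unknown), 0.25% DMSO final.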

COc1cc(C)[nH]c(=O)c1CN1CCc2c(Cl)cc(C(OC)C3COC3)c(Cl)c2C1=O (stereo not given) + COc1cc2c(cc1O)CCNC21CSC2c3c(OC(C)=O)c(C)c4c(c3C(COC1=O)N1C(O)C3Cc5cc(C)c(OC)c(O)c5C(C21)N3C)OCO4
IC50 (second compound 30 pM): > 10000 nM | IC50 (second compound 94.9 pM): > 10000 nM | IC50 (second compound 0.0003 µM): < 31.6 nM | IC50 (second compound 0.000949 µM): < 31.6 nM | IC50 (second compound 0.003 µM): < 31.6 nM | viability, T/C (second compound 30 pM, first compound 0.0316 µM): 132% | viability, T/C (second compound 30 pM, first compound 0.1 µM): 117% | viability, T/C (second compound 30 pM, first compound 0.316 µM): 108% | viability, T/C (second compound 30 pM, first compound 1 µM): 92.5% | viability, T/C (second compound 30 pM, first compound 3.16 µM): 86% | viability, T/C (second compound 30 pM, first compound 10 µM): 90.1% | viability, T/C (second compound 94.9 pM, first compound 0.0316 µM): 121% | viability, T/C (second compound 94.9 pM, first compound 0.1 µM): 99.9% | viability, T/C (second compound 94.9 pM, first compound 0.316 µM): 97.8% | viability, T/C (second compound 94.9 pM, first compound 1 µM): 89.7% | viability, T/C (second compound 94.9 pM, first compound 3.16 µM): 81.4% | viability, T/C (second compound 94.9 pM, first compound 10 µM): 70.8% | viability, T/C (second compound 0.0003 µM, first compound 0.0316 µM): 20.1% | viability, T/C (second compound 0.0003 µM, first compound 0.1 µM): 15.3% | viability, T/C (second compound 0.0003 µM, first compound 0.316 µM): 19.4% | viability, T/C (second compound 0.0003 µM, first compound 1 µM): 23.8% | viability, T/C (second compound 0.0003 µM, first compound 3.16 µM): 21.3% | viability, T/C (second compound 0.0003 µM, first compound 10 µM): 19.3% | viability, T/C (second compound 0.000949 µM, first compound 0.0316 µM): 3.35% | viability, T/C (second compound 0.000949 µM, first compound 0.1 µM): 3.82% | viability, T/C (second compound 0.000949 µM, first compound 0.316 µM): 3.22% | viability, T/C (second compound 0.000949 µM, first compound 1 µM): 4.24% | viability, T/C (second compound 0.000949 µM, first compound 3.16 µM): 4.87% | viability, T/C (second compound 0.000949 µM, first compound 10 µM): 4.39% | viability, T/C (second compound 0.003 µM, first compound 0.0316 µM): 0.33% | viability, T/C (second compound 0.003 µM, first compound 0.1 µM): 0.35% | viability, T/C (second compound 0.003 µM, first compound 0.316 µM): 0.32% | viability, T/C (second compound 0.003 µM, first compound 1 µM): 0.3% | viability, T/C (second compound 0.003 µM, first compound 3.16 µM): 0.32% | viability, T/C (second compound 0.003 µM, first compound 10 µM): 0.52%

Cc1sc2c(c1C)C(c1ccc(Cl)cc1)=NC(CC(=O)Nc1ccc(O)cc1)c1nnc(C)n1-2 (stereo not given) + COc1cc2c(cc1O)CCNC21CSC2c3c(OC(C)=O)c(C)c4c(c3C(COC1=O)N1C(O)C3Cc5cc(C)c(OC)c(O)c5C(C21)N3C)OCO4
IC50 (second compound 30 pM): 108 nM | IC50 (second compound 94.9 pM): 54 nM | IC50 (second compound 0.0003 µM): < 9.49 nM | IC50 (second compound 0.000949 µM): < 9.49 nM | IC50 (second compound 0.003 µM): < 9.49 nM | viability, T/C (second compound 30 pM, first compound 0.00949 µM): 84.8% | viability, T/C (second compound 30 pM, first compound 0.03 µM): 78.4% | viability, T/C (second compound 30 pM, first compound 0.0949 µM): 53.1% | viability, T/C (second compound 30 pM, first compound 0.3 µM): 23.3% | viability, T/C (second compound 30 pM, first compound 0.949 µM): 14.2% | viability, T/C (second compound 30 pM, first compound 3 µM): 7.89% | viability, T/C (second compound 94.9 pM, first compound 0.00949 µM): 76.4% | viability, T/C (second compound 94.9 pM, first compound 0.03 µM): 60.5% | viability, T/C (second compound 94.9 pM, first compound 0.0949 µM): 40.5% | viability, T/C (second compound 94.9 pM, first compound 0.3 µM): 19.5% | viability, T/C (second compound 94.9 pM, first compound 0.949 µM): 11.1% | viability, T/C (second compound 94.9 pM, first compound 3 µM): 4.34% | viability, T/C (second compound 0.0003 µM, first compound 0.00949 µM): 11.4% | viability, T/C (second compound 0.0003 µM, first compound 0.03 µM): 13.4% | viability, T/C (second compound 0.0003 µM, first compound 0.0949 µM): 10.5% | viability, T/C (second compound 0.0003 µM, first compound 0.3 µM): 4.16% | viability, T/C (second compound 0.0003 µM, first compound 0.949 µM): 1.76% | viability, T/C (second compound 0.0003 µM, first compound 3 µM): 0.21% | outcome (second compound 0.000949 µM, first compound 0.00949 µM): active | viability, T/C (second compound 0.000949 µM, first compound 0.03 µM): 1.98% | outcome (second compound 0.000949 µM, first compound 0.0949 µM): active | viability, T/C (second compound 0.000949 µM, first compound 0.3 µM): 0.18% | viability, T/C (second compound 0.000949 µM, first compound 0.949 µM): 0.05% | viability, T/C (second compound 0.000949 µM, first compound 3 µM): 0.12% | viability, T/C (second compound 0.003 µM, first compound 0.00949 µM): 0.14% | viability, T/C (second compound 0.003 µM, first compound 0.03 µM): 0.14% | viability, T/C (second compound 0.003 µM, first compound 0.0949 µM): 0.17% | viability, T/C (second compound 0.003 µM, first compound 0.3 µM): 0.17% | viability, T/C (second compound 0.003 µM, first compound 0.949 µM): 0.14% | viability, T/C (second compound 0.003 µM, first compound 3 µM): 0.27%
